The NIST ThermoML archive (doi:10.1016/j.jct.2004.12.014)
Numbers after ± are expanded uncertainties.

Legend:
[1] = xn = mol fraction of the nth substance listed; conditions: 318.15 K, 101 kPa, Liquid
[2] = excess molar enthalpy (molar enthalpy of mixing); xn = mol fraction of the nth substance listed; conditions: 318.15 K, 101 kPa, Liquid

`CCCCOC(=O)CC` [butyl propanoate] + CCCCCCC gave an excess molar volume ([1]; x1 = 0.0273) of 5.6e-08 ± 1.6e-08 m3/mol, an excess molar volume ([1]; x1 = 0.0572) of 1.25e-07 ± 1.6e-08 m3/mol and an excess molar volume ([1]; x1 = 0.1181) of 2.05e-07 ± 1.6e-08 m3/mol. For the same compound, the excess molar volume ([1]; x1 = 0.1785) was 2.96e-07 ± 1.7e-08 m3/mol, the excess molar volume ([1]; x1 = 0.2334) was 3.5e-07 ± 1.7e-08 m3/mol and the excess molar volume ([1]; x1 = 0.2923) was 3.76e-07 ± 1.7e-08 m3/mol. It also gave an excess molar volume ([1]; x1 = 0.3518) of 3.93e-07 ± 1.7e-08 m3/mol, an excess molar volume ([1]; x1 = 0.4089) of 4e-07 ± 1.7e-08 m3/mol and an excess molar volume ([1]; x1 = 0.4681) of 3.95e-07 ± 1.7e-08 m3/mol. The excess molar volume ([1]; x1 = 0.528) was 3.75e-07 ± 1.7e-08 m3/mol, the excess molar volume ([1]; x1 = 0.586) was 3.44e-07 ± 1.7e-08 m3/mol and the excess molar volume ([1]; x1 = 0.6449) was 3.06e-07 ± 1.7e-08 m3/mol. The excess molar volume ([1]; x1 = 0.7036) was 2.6e-07 ± 1.7e-08 m3/mol, the excess molar volume ([1]; x1 = 0.7666) was 2.08e-07 ± 1.6e-08 m3/mol and the excess molar volume ([1]; x1 = 0.8207) was 1.76e-07 ± 1.6e-08 m3/mol. It also gave an excess molar volume ([1]; x1 = 0.8838) of 1.05e-07 ± 1.6e-08 m3/mol, an excess molar volume ([1]; x1 = 0.937) of 7.2e-08 ± 1.6e-08 m3/mol and an excess molar enthalpy ([2]; x1 = 0.0476) of 0.0417 ± 0.00105 kcal/mol. The excess molar enthalpy ([2]; x1 = 0.1067) was 0.0841 ± 0.0017 kcal/mol, the excess molar enthalpy ([2]; x1 = 0.1732) was 0.121 ± 0.00225 kcal/mol and the excess molar enthalpy ([2]; x1 = 0.2357) was 0.146 ± 0.00263 kcal/mol. For the same compound, the excess molar enthalpy ([2]; x1 = 0.2979) was 0.163 ± 0.00287 kcal/mol, the excess molar enthalpy ([2]; x1 = 0.3579) was 0.176 ± 0.00311 kcal/mol and the excess molar enthalpy ([2]; x1 = 0.4131) was 0.183 ± 0.00311 kcal/mol. For the same compound, the excess molar enthalpy ([2]; x1 = 0.4328) was 0.185 ± 0.00311 kcal/mol, the excess molar enthalpy ([2]; x1 = 0.464) was 0.186 ± 0.00335 kcal/mol and the excess molar enthalpy ([2]; x1 = 0.475) was 0.187 ± 0.00335 kcal/mol. The excess molar enthalpy ([2]; x1 = 0.5206) was 0.186 ± 0.00335 kcal/mol, the excess molar enthalpy ([2]; x1 = 0.5701) was 0.181 ± 0.00311 kcal/mol and the excess molar enthalpy ([2]; x1 = 0.6256) was 0.171 ± 0.00311 kcal/mol. The excess molar enthalpy ([2]; x1 = 0.6846) was 0.156 ± 0.00287 kcal/mol, the excess molar enthalpy ([2]; x1 = 0.7498) was 0.134 ± 0.00239 kcal/mol and the excess molar enthalpy ([2]; x1 = 0.8152) was 0.106 ± 0.00203 kcal/mol. It also gave an excess molar enthalpy ([2]; x1 = 0.8835) of 0.0717 ± 0.00151 kcal/mol and an excess molar enthalpy ([2]; x1 = 0.9449) of 0.0357 ± 0.000956 kcal/mol.

For `CCCCOC(=O)CC` [butyl propanoate] + CCCCCCCCC, the excess molar volume ([1]; x1 = 0.0333) was 9.9e-08 ± 1.6e-08 m3/mol, the excess molar volume ([1]; x1 = 0.0721) was 1.95e-07 ± 1.6e-08 m3/mol and the excess molar volume ([1]; x1 = 0.139) was 3.26e-07 ± 1.7e-08 m3/mol. For the same compound, the excess molar volume ([1]; x1 = 0.2059) was 4.35e-07 ± 1.8e-08 m3/mol, the excess molar volume ([1]; x1 = 0.2687) was 5.18e-07 ± 1.8e-08 m3/mol and the excess molar volume ([1]; x1 = 0.3345) was 5.69e-07 ± 1.8e-08 m3/mol. The excess molar volume ([1]; x1 = 0.3947) was 5.89e-07 ± 1.8e-08 m3/mol, the excess molar volume ([1]; x1 = 0.4555) was 6.09e-07 ± 1.8e-08 m3/mol and the excess molar volume ([1]; x1 = 0.5165) was 6.08e-07 ± 1.8e-08 m3/mol. It also gave an excess molar volume ([1]; x1 = 0.5747) of 5.79e-07 ± 1.8e-08 m3/mol, an excess molar volume ([1]; x1 = 0.6293) of 5.5e-07 ± 1.8e-08 m3/mol and an excess molar volume ([1]; x1 = 0.6868) of 5.08e-07 ± 1.8e-08 m3/mol. The excess molar volume ([1]; x1 = 0.7408) was 4.43e-07 ± 1.8e-08 m3/mol, the excess molar volume ([1]; x1 = 0.7931) was 3.73e-07 ± 1.7e-08 m3/mol and the excess molar volume ([1]; x1 = 0.8466) was 3.03e-07 ± 1.7e-08 m3/mol. The excess molar volume ([1]; x1 = 0.8978) was 2.16e-07 ± 1.7e-08 m3/mol, the excess molar volume ([1]; x1 = 0.9473) was 1.21e-07 ± 1.6e-08 m3/mol and the excess molar enthalpy ([2]; x1 = 0.0694) was 0.0639 ± 0.00139 kcal/mol. For the same compound, the excess molar enthalpy ([2]; x1 = 0.1491) was 0.116 ± 0.00217 kcal/mol, the excess molar enthalpy ([2]; x1 = 0.2269) was 0.159 ± 0.00287 kcal/mol and the excess molar enthalpy ([2]; x1 = 0.302) was 0.189 ± 0.00335 kcal/mol. It also gave an excess molar enthalpy ([2]; x1 = 0.3723) of 0.207 ± 0.00359 kcal/mol, an excess molar enthalpy ([2]; x1 = 0.4365) of 0.215 ± 0.00359 kcal/mol and an excess molar enthalpy ([2]; x1 = 0.4936) of 0.215 ± 0.00359 kcal/mol. The excess molar enthalpy ([2]; x1 = 0.5364) was 0.213 ± 0.00359 kcal/mol, the excess molar enthalpy ([2]; x1 = 0.5441) was 0.211 ± 0.00359 kcal/mol and the excess molar enthalpy ([2]; x1 = 0.5775) was 0.21 ± 0.00359 kcal/mol. It also gave an excess molar enthalpy ([2]; x1 = 0.5891) of 0.207 ± 0.00359 kcal/mol, an excess molar enthalpy ([2]; x1 = 0.6309) of 0.2 ± 0.00359 kcal/mol and an excess molar enthalpy ([2]; x1 = 0.6873) of 0.184 ± 0.00311 kcal/mol. For the same compound, the excess molar enthalpy ([2]; x1 = 0.7512) was 0.159 ± 0.00287 kcal/mol, the excess molar enthalpy ([2]; x1 = 0.8149) was 0.128 ± 0.00237 kcal/mol and the excess molar enthalpy ([2]; x1 = 0.8787) was 0.089 ± 0.00177 kcal/mol. The excess molar enthalpy ([2]; x1 = 0.9424) was 0.0465 ± 0.00112 kcal/mol.

With `CCCCOC(=O)CC` [butyl propanoate] + CCCCCCCCCCC the excess molar volume ([1]; x1 = 0.0439) was 1.43e-07 ± 1.6e-08 m3/mol, the excess molar volume ([1]; x1 = 0.0844) was 2.51e-07 ± 1.7e-08 m3/mol and the excess molar volume ([1]; x1 = 0.1613) was 4.24e-07 ± 1.7e-08 m3/mol. It also gave an excess molar volume ([1]; x1 = 0.2331) of 5.45e-07 ± 1.8e-08 m3/mol, an excess molar volume ([1]; x1 = 0.3029) of 6.41e-07 ± 1.8e-08 m3/mol and an excess molar volume ([1]; x1 = 0.3719) of 7.16e-07 ± 1.9e-08 m3/mol. It also gave an excess molar volume ([1]; x1 = 0.4347) of 7.45e-07 ± 1.9e-08 m3/mol, an excess molar volume ([1]; x1 = 0.4991) of 7.49e-07 ± 1.9e-08 m3/mol and an excess molar volume ([1]; x1 = 0.5571) of 7.43e-07 ± 1.9e-08 m3/mol. For the same compound, the excess molar volume ([1]; x1 = 0.6136) was 7.09e-07 ± 1.9e-08 m3/mol, the excess molar volume ([1]; x1 = 0.6682) was 6.64e-07 ± 1.9e-08 m3/mol and the excess molar volume ([1]; x1 = 0.7205) was 6.18e-07 ± 1.8e-08 m3/mol. For the same compound, the excess molar volume ([1]; x1 = 0.7715) was 5.27e-07 ± 1.8e-08 m3/mol, the excess molar volume ([1]; x1 = 0.8193) was 4.41e-07 ± 1.8e-08 m3/mol and the excess molar volume ([1]; x1 = 0.8661) was 3.61e-07 ± 1.7e-08 m3/mol. The excess molar volume ([1]; x1 = 0.9118) was 2.76e-07 ± 1.7e-08 m3/mol, the excess molar volume ([1]; x1 = 0.9546) was 1.35e-07 ± 1.6e-08 m3/mol and the excess molar enthalpy ([2]; x1 = 0.0817) was 0.0786 ± 0.00163 kcal/mol. The excess molar enthalpy ([2]; x1 = 0.1628) was 0.132 ± 0.00239 kcal/mol, the excess molar enthalpy ([2]; x1 = 0.2473) was 0.183 ± 0.00311 kcal/mol and the excess molar enthalpy ([2]; x1 = 0.325) was 0.215 ± 0.00359 kcal/mol. For the same compound, the excess molar enthalpy ([2]; x1 = 0.3967) was 0.234 ± 0.00406 kcal/mol, the excess molar enthalpy ([2]; x1 = 0.463) was 0.243 ± 0.00406 kcal/mol and the excess molar enthalpy ([2]; x1 = 0.4868) was 0.243 ± 0.00406 kcal/mol. It also gave an excess molar enthalpy ([2]; x1 = 0.5197) of 0.243 ± 0.00406 kcal/mol, an excess molar enthalpy ([2]; x1 = 0.5243) of 0.242 ± 0.00406 kcal/mol and an excess molar enthalpy ([2]; x1 = 0.5644) of 0.239 ± 0.00406 kcal/mol. It also gave an excess molar enthalpy ([2]; x1 = 0.6091) of 0.232 ± 0.00406 kcal/mol, an excess molar enthalpy ([2]; x1 = 0.6567) of 0.224 ± 0.00382 kcal/mol and an excess molar enthalpy ([2]; x1 = 0.7051) of 0.201 ± 0.00359 kcal/mol. For the same compound, the excess molar enthalpy ([2]; x1 = 0.7582) was 0.175 ± 0.00311 kcal/mol, the excess molar enthalpy ([2]; x1 = 0.8113) was 0.147 ± 0.00263 kcal/mol and the excess molar enthalpy ([2]; x1 = 0.8642) was 0.114 ± 0.00215 kcal/mol. It also gave an excess molar enthalpy ([2]; x1 = 0.9137) of 0.0779 ± 0.0016 kcal/mol and an excess molar enthalpy ([2]; x1 = 0.9601) of 0.04 ± 0.00105 kcal/mol.
